Measured values reported in ChEMBL document CHEMBL1201862, “PubChem BioAssay data set” (2004).
Structures can show the parent of a compound that is named as a salt.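 A five-concentration, 48-hour dose response in 96-well plates underlies each endpoint, interpolated linearly between surrounding concentrations. GI50: concentration for 50% inhibition of growth.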 Active and inactive are the calls of the source. Cut-off read from the data, not from the text of the source: active = GI50 up to about 1.1 µM and inactive = higher.

Assays:
Experiment in all cases: NCI-60 cell line screen, 48 h
[1] = tested on: MOLT-4
[2] = tested on: CCRF-CEM
[3] = tested on: SK-MEL-5
[4] = tested on: HL-60
[5] = tested on: SK-MEL-2
[6] = tested on: OVCAR-8
[7] = tested on: UACC-257
[8] = tested on: NCI-H460
[9] = tested on: NCI-H23
[10] = tested on: OVCAR-5
[11] = tested on: RXF 393
[12] = tested on: HOP-62
[13] = tested on: UO-31
[14] = tested on: IGROV-1
[15] = tested on: SNB-19
[16] = tested on: HOP-92

In the case of COc1ccc(C(C#N)NNC(=O)c2ccccc2O)cc1OC (centres undefined), the GI50 [1] is reported as 3.04 µM (inactive), the GI50 [2] is reported as 1.21 µM (inactive) and the GI50 [3] is reported as 8.95 µM (inactive). For the same compound, the GI50 [4] was 1.76 µM (inactive), the GI50 [5] was 0.667 µM (active) and the GI50 [6] was 1.46 µM (inactive). For the same compound, the GI50 [7] was 3.84 µM (inactive), the GI50 [8] was 0.478 µM (active) and the GI50 [9] was 0.746 µM (active). For the same compound, the GI50 [10] was 15.1 µM (inactive), the GI50 [11] was 0.902 µM (active) and the GI50 [12] was 13.2 µM (inactive). The GI50 [13] was 0.379 µM (active) and the GI50 [14] was 0.547 µM (active).
CC(NC(C)(C)C)C(=O)c1cccc(Cl)c1 (centres undefined) [BUPROPION HYDROCHLORIDE] was tested, and the GI50 [1] was > 100 µM (inactive), the GI50 [2] was > 100 µM (inactive) and the GI50 [3] was > 100 µM (inactive). For the same compound, the GI50 [5] was > 100 µM (inactive), the GI50 [6] was > 100 µM (inactive) and the GI50 [7] was > 100 µM (inactive). The GI50 [8] was > 100 µM (inactive), the GI50 [9] was > 100 µM (inactive) and the GI50 [11] was > 100 µM (inactive). For the same compound, the GI50 [12] was > 100 µM (inactive) and the GI50 [14] was > 100 µM (inactive).
Nn1c(-c2cccc(Cl)c2)nc2ccccc2c1=O was tested, and the GI50 [1] was 60.1 µM (inactive), the GI50 [2] was 51.5 µM (inactive) and the GI50 [3] was > 100 µM (inactive). The GI50 [15] was > 100 µM (inactive), the GI50 [4] was > 100 µM (inactive) and the GI50 [16] was > 100 µM (inactive). The GI50 [5] was > 100 µM (inactive), the GI50 [6] was > 100 µM (inactive) and the GI50 [7] was > 100 µM (inactive). For the same compound, the GI50 [8] was > 100 µM (inactive), the GI50 [9] was > 100 µM (inactive) and the GI50 [10] was > 100 µM (inactive). The GI50 [12] was > 100 µM (inactive), the GI50 [13] was > 100 µM (inactive) and the GI50 [14] was > 100 µM (inactive).
With C[n+]1cc(C(O)c2ccc3c(c2)OCO3)c2ccccc2c1 (centres undefined) the GI50 [1] was 17.9 µM (inactive), the GI50 [2] was 29.9 µM (inactive) and the GI50 [3] was 17.9 µM (inactive). The GI50 [15] was 44.3 µM (inactive), the GI50 [5] was 26.2 µM (inactive) and the GI50 [6] was 33.3 µM (inactive). The GI50 [7] was 18.6 µM (inactive), the GI50 [8] was 40.3 µM (inactive) and the GI50 [10] was > 100 µM (inactive). The GI50 [11] was 14.1 µM (inactive), the GI50 [12] was 37.7 µM (inactive) and the GI50 [13] was 16.6 µM (inactive). For the same compound, the GI50 [14] was 47.4 µM (inactive).
In the case of CC(=O)OCC(OC(C)=O)C(OC(C)=O)C(OC(C)=O)C(=O)CNn1c(-c2ccccc2Cl)nc2ccccc2c1=O (centres undefined), the GI50 [1] is reported as > 100 µM (inactive), the GI50 [2] is reported as 84.3 µM (inactive) and the GI50 [3] is reported as > 100 µM (inactive). The GI50 [15] was > 100 µM (inactive), the GI50 [4] was 38.5 µM (inactive) and the GI50 [5] was > 100 µM (inactive). For the same compound, the GI50 [6] was > 100 µM (inactive), the GI50 [7] was > 100 µM (inactive) and the GI50 [8] was > 100 µM (inactive). For the same compound, the GI50 [9] was > 100 µM (inactive), the GI50 [10] was > 100 µM (inactive) and the GI50 [11] was > 100 µM (inactive). For the same compound, the GI50 [12] was > 100 µM (inactive) and the GI50 [13] was > 100 µM (inactive).
With Cc1nc2c(n1CCO)C(=O)c1ccccc1C2=O the GI50 [1] was 28.9 µM (inactive), the GI50 [2] was 27.4 µM (inactive) and the GI50 [3] was 11.3 µM (inactive). The GI50 [15] was 43 µM (inactive), the GI50 [4] was 19.9 µM (inactive) and the GI50 [5] was 18.4 µM (inactive). For the same compound, the GI50 [6] was 30.3 µM (inactive), the GI50 [7] was 16.6 µM (inactive) and the GI50 [8] was 27.3 µM (inactive). The GI50 [9] was 15 µM (inactive), the GI50 [11] was 33.7 µM (inactive) and the GI50 [12] was 28.6 µM (inactive). For the same compound, the GI50 [13] was > 100 µM (inactive) and the GI50 [14] was 20.3 µM (inactive).
CC(=O)O[C@H]1CCC2[C@@H]3CCC4Nc5[nH]ncc5C[C@]4(C)C3CC[C@@]21C (some centres undefined) was tested, and the GI50 [1] was 22.9 µM (inactive), the GI50 [2] was 22.4 µM (inactive) and the GI50 [3] was 24.5 µM (inactive). For the same compound, the GI50 [15] was 26.4 µM (inactive), the GI50 [4] was 18.2 µM (inactive) and the GI50 [5] was > 100 µM (inactive). For the same compound, the GI50 [6] was 34.9 µM (inactive), the GI50 [7] was 22.4 µM (inactive) and the GI50 [8] was > 100 µM (inactive). The GI50 [9] was 61.2 µM (inactive), the GI50 [10] was > 100 µM (inactive) and the GI50 [11] was > 100 µM (inactive). The GI50 [12] was > 100 µM (inactive), the GI50 [13] was > 100 µM (inactive) and the GI50 [14] was > 100 µM (inactive).
In the case of CC1=C2[C@@H](c3ccccc3)C3C=CC2(c2ccccc23)N(C(=O)Nc2cccc3ccccc23)C1=O (some centres undefined), the GI50 [1] is reported as > 100 µM (inactive), the GI50 [2] is reported as > 100 µM (inactive) and the GI50 [3] is reported as > 100 µM (inactive). The GI50 [15] was > 100 µM (inactive), the GI50 [4] was > 100 µM (inactive) and the GI50 [16] was > 100 µM (inactive). The GI50 [6] was > 100 µM (inactive), the GI50 [7] was > 100 µM (inactive) and the GI50 [9] was > 100 µM (inactive). The GI50 [10] was > 100 µM (inactive), the GI50 [12] was > 100 µM (inactive) and the GI50 [13] was > 100 µM (inactive). The GI50 [14] was > 100 µM (inactive).
